# Results: patent US20050130252A1, “Stabilized susceptibility tests of aerobic pathogens” (Wyeth Holdings Corporation, priority 2003, published 2005)
# Where two headings read alike, the source gives them in different places.
# Legend:
# E. coli ATCC 25922 [1] = experiment: Time-kill assay, fresh vs aged Mueller-Hinton broth; format: cell-based, Escherichia coli; conditions: FIG. 1
# Procedure: Time-kill assays were performed by the broth macrodilution method in accordance with the NCCLS guidelines (NCCLS. 1999. Methods for Determining Bactericidal Activity of Antimicrobial Agents; Approved Guidelines: M26-A, vol. 19. National Committee for Clinical Laboratory Standards, Wayne, Pa.). A starting inoculum of approximately 10^6 CFU/ml and a final concentration of the antibiotic equal to four times the MIC were employed for these assays. Flasks containing 50 ml of MHB II with the appropriate antimicrobial agent were inoculated with […] of the test organism in logarithmic growth phase. Test flasks (250 ml) were incubated with shaking (150 RPM) in a 35° C. water bath. Aliquots were removed for the determination of viable counts at 0, 2, 4, 6 and 24 hours. Serial dilutions were prepared in sterile 0.85% sodium chloride solution. The diluted samples (0.05 ml) were plated onto appropriate agar plates trypticase soy agar (TSA) with a spiral plater (Don Whitley Scientific LTD). The plates were incubated at 35° C. in ambient air for 18-22 hours and the number of colonies were determined on the ProtoCOL plate reader plater (Don Whitley Scientific LTD). Killing curves were constructed by plotting the log10 CFU/ml versus time over 24 hours and the change in bacterial concentration was determined. Data is shown graphically in FIG. 1. Presented in Table 3 are the minimal inhibitory concentration results of the effect of media age, fresh vs. aged and Oxyrase® on the activity of tigecycline.
# To further establish this effect, a time kill experiment was performed with E. coli ATCC 25922 in fresh and aged media at […] and 1 μg/ml of tigecycline, which represents 1×, and 4×MIC of this organism determined in aged media. […]
# E. coli ATCC 25922 [2] = experiment: Broth microdilution MIC; format: cell-based, Escherichia coli; conditions: Escherichia coli
# Procedure: The process for preparing susceptibility test medium are the following steps: • a. Preparing Mueller Hinton Broth II medium by adding 22 grams powdered media to 1.0 liter distilled water; • b. Autoclaving (121° C., 15 psi, 15 minutes) and cooling the medium; • c. Adding Oxyrase® up to about 10% final volume and keeping at 35-37° C. in an incubator for 30 minutes; • d. Adding about 50 μL to each well of a 96 well microtiter plate; • e. Weighing drug and adding broth to drug to bring up to about (standard 128 μg/ml); • f. Adding 50 μL of the drug to the first column of the titer plate; • g. Diluting by two-fold serial diluting across or down the plate. • h. Preparing a Prompt™ inoculum at 10^8 CFU/ml; • i. Diluting inoculum 1:100 in the broth at […] in 9.9 ml (1:100) is 10^6 colony forming units (CFU) forming the adjusted inoculum; • j. Adding 50 μL of the adjusted inoculum to the wells of the microtiter plate; • k. Incubating the plates at 35-37° C. for 18-22 hours; and • l. Reading, with the unaided eye, the MIC.
# The in vitro activities of tigecycline and control antibiotics were determined by the broth microdilution method as recommended by the NCCLS. (National Committee for Clinical Laboratory Standards, 2003. Methods for Dilution Antimicrobial Susceptibility Tests for Bacteria That Grow Aerobically; Approved Standards: M7-A6, Sixth ed, vol. 23., National Committee for Clinical Laboratory Standards Wayne, Pa.) was used for the standard procedures. MBH with 5% lysed horse blood was used for testing S. pneumoniae and Haemophilus Test Medium was used for testing H. influenzae. Oxyrase® (Oxyrase Inc, Mansfield, Ohio) was used according to the manufacturer's instructions by adding 1 ml of Oxyrase® to 50 ml of media. Media age studies were performed by preparing MHB in multiple flasks, then storing the media under various conditions. MICs were usually performed in duplicate on each day of testing. Storage under anaerobic conditions was conducted in an anaerobic chamber (MACS MG 1000, Don Whitley Scientific LTD). The pH of the media was determined by pH meter (Corning 430). A comparison of the in vitro activity of tigecycline by agar and broth dilution methodolgies with and without Oxyrase® against clinical isolates is shown in Table 1.
smiles,measurement,setting,value
"CN(C)c1cc(NC(=O)CNC(C)(C)C)c(O)c2c1C[C@H]1C[C@H]3[C@H](N(C)C)C(O)=C(C(N)=O)C(=O)[C@@]3(O)C(O)=C1C2=O [Tigecycline, tigecycline]","Time kill, growth of E. coli ATCC25922 in aged media","E. coli ATCC 25922 [1]; 0.12 μg/ml of tigecycline, aged media",regrowth of the strain after 6 h exposure
same,"Time kill, growth of E. coli ATCC25922 in fresh media","E. coli ATCC 25922 [1]; 0.12 and 1 μg/ml of tigecycline, fresh media",suppressed the growth
same,"Difference in viable growth, fresh vs aged media (time kill kinetics)",E. coli ATCC 25922 [1]; E. coli ATCC 25922,> 3 log10
same,MIC,"E. coli ATCC 25922 [2]; ATCC25922, 0 h, E. coli ATCC 25922, Day 0, Pre-prepared media, room temperature, N = 6",0.12 µg/mL
same,MIC,"E. coli ATCC 25922 [2]; ATCC25922, 0 h, E. coli ATCC 25922, Day 0, media Fresh from Powder 2° C., N = 6",0.03 to 0.06 µg/mL
same,MIC,"E. coli ATCC 25922 [2]; ATCC25922, 0 h, E. coli ATCC 25922, Day 0, media Fresh from Powder, room temperature, N = 6",0.03 µg/mL
same,MIC,"E. coli ATCC 25922 [2]; ATCC25922, 24 h, E. coli ATCC 25922, Day 1, Pre-prepared media, room temperature, N = 6",0.12 to 0.25 µg/mL
same,MIC,"E. coli ATCC 25922 [2]; ATCC25922, 24 h, E. coli ATCC 25922, Day 1, media Fresh from Powder 2° C., N = 6",0.03 to 0.06 µg/mL
same,MIC,"E. coli ATCC 25922 [2]; ATCC25922, 24 h, E. coli ATCC 25922, Day 1, media Fresh from Powder, room temperature, N = 6",0.06 µg/mL
same,MIC,"E. coli ATCC 25922 [2]; ATCC25922, 168 h, E. coli ATCC 25922, Day 7, Pre-prepared media, room temperature, N = 6",0.12 to 0.25 µg/mL
same,MIC,"E. coli ATCC 25922 [2]; ATCC25922, 168 h, E. coli ATCC 25922, Day 7, media Fresh from Powder 2° C., N = 6",0.06 µg/mL
same,MIC,"E. coli ATCC 25922 [2]; ATCC25922, 168 h, E. coli ATCC 25922, Day 7, media Fresh from Powder, room temperature, N = 6",0.12 µg/mL
same,MIC,"E. coli ATCC 25922 [2]; ATCC25922, 336 h, E. coli ATCC 25922, Day 14, Pre-prepared media, room temperature, N = 6",0.12 to 0.25 µg/mL
same,MIC,"E. coli ATCC 25922 [2]; ATCC25922, 336 h, E. coli ATCC 25922, Day 14, media Fresh from Powder 2° C., N = 6",0.12 to 0.25 µg/mL
same,MIC,"E. coli ATCC 25922 [2]; ATCC25922, 336 h, E. coli ATCC 25922, Day 14, media Fresh from Powder, room temperature, N = 6",0.12 to 0.25 µg/mL
same,MIC,"E. coli ATCC 25922 [2]; ATCC25922, 336 h, read-out: Minimal Inhibitory Concentration, E. coli ATCC 25922, media Aged Aerobic (2 weeks at RT under room air), N = 4",0.12 to 0.25 µg/mL
same,MIC,"E. coli ATCC 25922 [2]; ATCC25922, 504 h, E. coli ATCC 25922, Day 21, media Fresh from Powder 2° C., N = 6",0.25 µg/mL
same,MIC,"E. coli ATCC 25922 [2]; ATCC25922, 504 h, E. coli ATCC 25922, Day 21, media Fresh from Powder, room temperature, N = 6",0.12 to 0.25 µg/mL
same,MIC,"E. coli ATCC 25922 [2]; ATCC25922, 672 h, E. coli ATCC 25922, Day 28, Pre-prepared media, room temperature, N = 6",0.12 to 0.25 µg/mL
same,MIC,"E. coli ATCC 25922 [2]; ATCC25922, 672 h, E. coli ATCC 25922, Day 28, media Fresh from Powder 2° C., N = 6",0.12 µg/mL
same,MIC,"E. coli ATCC 25922 [2]; ATCC25922, 672 h, E. coli ATCC 25922, Day 28, media Fresh from Powder, room temperature, N = 6",0.12 to 0.25 µg/mL
same,MIC,"E. coli ATCC 25922 [2]; ATCC25922, read-out: Minimal Inhibitory Concentration (modal value), E. coli ATCC 25922, Aged Media + Oxyrase, N = 8",0.12 µg/mL
same,MIC,"E. coli ATCC 25922 [2]; ATCC25922, read-out: Minimal Inhibitory Concentration (modal value), E. coli ATCC 25922, Aged media, N = 8",0.25 µg/mL
same,MIC,"E. coli ATCC 25922 [2]; ATCC25922, read-out: Minimal Inhibitory Concentration (modal value), E. coli ATCC 25922, Fresh Media + Oxyrase, N = 8",0.12 µg/mL
same,MIC,"E. coli ATCC 25922 [2]; ATCC25922, read-out: Minimal Inhibitory Concentration (modal value), E. coli ATCC 25922, Freshly Prepared Media, N = 8",0.12 µg/mL
same,MIC,"E. coli ATCC 25922 [2]; ATCC25922, read-out: Minimal Inhibitory Concentration, E. coli ATCC 25922, 2% Oxyrase",0.03 µg/mL
same,MIC,"E. coli ATCC 25922 [2]; ATCC25922, read-out: Minimal Inhibitory Concentration, E. coli ATCC 25922, Aged Media + Oxyrase, N = 8",0.12 to 0.25 µg/mL
same,MIC,"E. coli ATCC 25922 [2]; ATCC25922, read-out: Minimal Inhibitory Concentration, E. coli ATCC 25922, Aged media, N = 8",0.25 to 0.5 µg/mL
same,MIC,"E. coli ATCC 25922 [2]; ATCC25922, read-out: Minimal Inhibitory Concentration, E. coli ATCC 25922, Commercially Prepared media, N = 4",0.12 to 0.25 µg/mL
same,MIC,"E. coli ATCC 25922 [2]; ATCC25922, read-out: Minimal Inhibitory Concentration, E. coli ATCC 25922, Fresh Media + Oxyrase, N = 8",0.06 to 0.12 µg/mL
